The structures appear in SMILES notation. Where a name gives a salt, the structure may show the parent alone.

Chain of BACE1 (P56817 46-457): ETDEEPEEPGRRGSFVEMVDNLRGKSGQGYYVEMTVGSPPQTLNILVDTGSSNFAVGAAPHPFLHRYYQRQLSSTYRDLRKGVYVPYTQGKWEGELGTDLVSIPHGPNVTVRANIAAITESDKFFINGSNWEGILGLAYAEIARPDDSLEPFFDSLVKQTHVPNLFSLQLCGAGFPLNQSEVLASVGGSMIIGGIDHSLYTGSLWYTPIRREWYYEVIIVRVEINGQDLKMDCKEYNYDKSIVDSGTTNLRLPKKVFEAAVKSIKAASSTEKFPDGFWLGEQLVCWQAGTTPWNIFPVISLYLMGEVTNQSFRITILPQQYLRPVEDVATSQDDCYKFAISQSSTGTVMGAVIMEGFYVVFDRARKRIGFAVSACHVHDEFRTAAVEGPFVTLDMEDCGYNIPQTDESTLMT

The assay concerns the target BACE1 (Homo sapiens (Human), UniProt P56817). Briefly: BACE1 Cell-Free Assay (fluorescence polarization). The assay is classed as biochemical. The note with it: geometric mean of 2-4 determinations unless otherwise indicated (b: ≧5; c: single determination); read-out: BACE1 Cell-free Assay IC50. The text has this: This assay measures the inhibition of the beta-secretase enzyme as it cleaves a non-native peptide.
A synthetic APP substrate that can be cleaved by beta-secretase having N-terminal biotin and made fluorescent by the covalent attachment of Oregon Green at the Cys residue is used to assay beta-secretase activity in the presence or absence of the inhibitory compounds. […] The BACE1 enzyme is affinity purified material from conditioned media of CHO-K1 cells that have been transfected with a soluble BACE construct (BACE1deltaTM96His). […] Plates are covered and incubated for 3 hours at 37° C. […] The activity of the beta-secretase enzyme is detected by changes in the fluorescence polarization that occur when the substrate is cleaved by the enzyme.
In general terms: Fluorescence polarisation rises when a labelled molecule tumbles more slowly, as on binding a larger partner.
As a reminder, the IC50 is the concentration that inhibits the measured activity by half. On to `C[C@H]1C[C@H]2CSC(N)=N[C@@]2(c2nc(NC(=O)c3coc(C(F)(F)F)n3)cs2)CO1` [Example 50, N-{2-[(4aR,6S,8aR)-2-amino-6-methyl-4,4a,5,6-tetrahydropyrano[3,4-d][1,3]thiazin-8a(8H)-yl]-1,3-thiazol-4-yl}-2-(trifluoromethyl)-1,3-oxazole-4-carboxamide], for which the IC50 was 189 nM.

Turning to `Cc1noc(C(=O)Nc2csc([C@]34CO[C@@H](C)C[C@H]3CSC(N)=N4)n2)n1` [Example 51, N-{2-[(4aR,6S,8aR)-2-amino-6-methyl-4,4a,5,6-tetrahydropyrano[3,4-d][1,3]thiazin-8a(8H)-yl]-1,3-thiazol-4-yl}-3-methyl-1,2,4-oxadiazole-5-carboxamide], the IC50 amounted to 98 nM.

For the compound `Cc1nc(C(=O)Nc2csc([C@]34CO[C@@H](C)C[C@H]3CSC(N)=N4)n2)no1` [Example 52, N-{2-[(4aR,6S,8aR)-2-amino-6-methyl-4,4a,5,6-tetrahydropyrano[3,4-d][1,3]thiazin-8a(8H)-yl]-1,3-thiazol-4-yl}-5-methyl-1,2,4-oxadiazole-3-carboxamide], the IC50 turned out to be 91 nM.

Take `Cc1nc(C(=O)Nc2csc([C@]34CO[C@@H](C)C[C@H]3CSC(N)=N4)n2)c(C)o1` [Example 53, N-{2-[(4aR,6S,8aR)-2-amino-6-methyl-4,4a,5,6-tetrahydropyrano[3,4-d][1,3]thiazin-8a(8H)-yl]-1,3-thiazol-4-yl}-2,5-dimethyl-1,3-oxazole-4-carboxamide]: the IC50 was determined as 65 nM.

Consider `C[C@H]1C[C@H]2CSC(N)=N[C@@]2(c2nc(NC(=O)c3cnc(OCC4CC4)cn3)cs2)CO1` [Example 54, N-{2-[(4aR,6S,8aR)-2-amino-6-methyl-4,4a,5,6-tetrahydropyrano[3,4-d][1,3]thiazin-8a(8H)-yl]-1,3-thiazol-4-yl}-5-(cyclopropylmethoxy)pyrazine-2-carboxamide], for which the IC50 amounted to 161 nM.

On to `C[C@H]1C[C@H]2CSC(N)=N[C@@]2(c2nc(NC(=O)c3cnc(OC4CC4)cn3)cs2)CO1` [Example 55, N-{2-[(4aR,6S,8aR)-2-amino-6-methyl-4,4a,5,6-tetrahydropyrano[3,4-d][1,3]thiazin-8a(8H)-yl]-1,3-thiazol-4-yl}-5-(cyclopropyloxy)pyrazine-2-carboxamide], for which the IC50 came to 519 nM.

As for `C[C@@H](F)COc1cnc(C(=O)Nc2csc([C@]34CO[C@@H](C)C[C@H]3CSC(N)=N4)n2)cn1` [Example 56, N-{2-[(4aR,6S,8aR)-2-amino-6-methyl-4,4a,5,6-tetrahydropyrano[3,4-d][1,3]thiazin-8a(8H)-yl]-1,3-thiazol-4-yl}-5-{[(2R)-2-fluoropropyl]oxy}pyrazine-2-carboxamide], the IC50 stood at 360 nM.

With `C[C@H](F)COc1cnc(C(=O)Nc2csc([C@]34CO[C@@H](C)C[C@H]3CSC(N)=N4)n2)cn1` [Example 57, N-{2-[(4aR,6S,8aR)-2-amino-6-methyl-4,4a,5,6-tetrahydropyrano[3,4-d][1,3]thiazin-8a(8H)-yl]-1,3-thiazol-4-yl}-5-{[(2S)-2-fluoropropyl]oxy}pyrazine-2-carboxamide], the IC50 was determined as 372 nM.

With `C[C@H]1C[C@H]2CSC(N)=N[C@@]2(c2nc(NC(=O)c3cnc(OCC(C)(F)F)cn3)cs2)CO1` [Example 58, N-{2-[(4aR,6S,8aR)-2-amino-6-methyl-4,4a,5,6-tetrahydropyrano[3,4-d][1,3]thiazin-8a(8H)-yl]-1,3-thiazol-4-yl}-5-(2,2-difluoropropoxy)pyrazine-2-carboxamide], the IC50 came out at 161 nM.

Consider `Cc1nc(C)c(C(=O)Nc2csc([C@]34CO[C@@H](C)C[C@H]3CSC(N)=N4)n2)o1` [Example 59, N-{2-[(4aR,6S,8aR)-2-amino-6-methyl-4,4a,5,6-tetrahydropyrano[3,4-d][1,3]thiazin-8a(8H)-yl]-1,3-thiazol-4-yl}-2,4-dimethyl-1,3-oxazole-5-carboxamide, trifluoroacetate salt], for which the IC50 was found to be 740 nM.

`C[C@H]1C[C@H]2CSC(N)=N[C@@]2(c2nc(NC(=O)c3cn(C)nc3C(F)(F)F)cs2)CO1` [Example 60, N-{2-[(4aR,6S,8aR)-2-amino-6-methyl-4,4a,5,6-tetrahydropyrano[3,4-d][1,3]thiazin-8a(8H)-yl]-1,3-thiazol-4-yl}-1-methyl-3-(trifluoromethyl)-1H-pyrazole-4-carboxamide, trifluoroacetate salt]: the IC50 was 3840 nM.

Take `CC(C)n1cnc(C(=O)Nc2csc([C@]34CO[C@@H](C)C[C@H]3CSC(N)=N4)n2)c1` [Example 61, N-{2-[(4aR,6S,8aR)-2-amino-6-methyl-4,4a,5,6-tetrahydropyrano[3,4-d][1,3]thiazin-8a(8H)-yl]-1,3-thiazol-4-yl}-1-(propan-2-yl)-1H-imidazole-4-carboxamide, trifluoroacetate salt]: the IC50 was found to be 1830 nM.

For the compound `CC(C)Cc1cc(C(=O)Nc2csc([C@]34CO[C@@H](C)C[C@H]3CSC(N)=N4)n2)no1` [Example 62, N-{2-[(4aR,6S,8aR)-2-amino-6-methyl-4,4a,5,6-tetrahydropyrano[3,4-d][1,3]thiazin-8a(8H)-yl]-1,3-thiazol-4-yl}-5-(2-methylpropyl)-1,2-oxazole-3-carboxamide, trifluoroacetate salt], the IC50 is 9690 nM.

As to `C[C@H]1C[C@H]2CSC(N)=N[C@@]2(c2nc(NC(=O)c3cnn(C)c3)cs2)CO1` [Example 63, N-{2-[(4aR,6S,8aR)-2-amino-6-methyl-4,4a,5,6-tetrahydropyrano[3,4-d][1,3]thiazin-8a(8H)-yl]-1,3-thiazol-4-yl}-1-methyl-1H-pyrazole-4-carboxamide, trifluoroacetate salt], the IC50 was found to be 3940 nM.

For `Cc1cc(C(=O)Nc2csc([C@]34CO[C@@H](C)C[C@H]3CSC(N)=N4)n2)no1` [Example 64, N-{2-[(4aR,6S,8aR)-2-amino-6-methyl-4,4a,5,6-tetrahydropyrano[3,4-d][1,3]thiazin-8a(8H)-yl]-1,3-thiazol-4-yl}-5-methyl-1,2-oxazole-3-carboxamide, trifluoroacetate salt], the IC50 is 2620 nM.

Regarding `CC(C)Cc1cc(C(=O)Nc2csc([C@]34CO[C@@H](C)C[C@H]3CSC(N)=N4)n2)nn1C` [Example 65, N-{2-[(4aR,6S,8aR)-2-amino-6-methyl-4,4a,5,6-tetrahydropyrano[3,4-d][1,3]thiazin-8a(8H)-yl]-1,3-thiazol-4-yl}-1-methyl-5-(2-methylpropyl)-1H-pyrazole-3-carboxamide, trifluoroacetate salt], the IC50 turned out to be 51000 nM.

For `C[C@H]1C[C@H]2CSC(N)=N[C@@]2(c2nc(NC(=O)c3ccncn3)cs2)CO1` [Example 66, N-{2-[(4aR,6S,8aR)-2-amino-6-methyl-4,4a,5,6-tetrahydropyrano[3,4-d][1,3]thiazin-8a(8H)-yl]-1,3-thiazol-4-yl}pyrimidine-4-carboxamide, trifluoroacetate salt], the IC50 stood at 575 nM.

On to `Cc1cc(C(=O)Nc2csc([C@]34CO[C@@H](C)C[C@H]3CSC(N)=N4)n2)on1` [Example 67, N-{2-[(4aR,6S,8aR)-2-amino-6-methyl-4,4a,5,6-tetrahydropyrano[3,4-d][1,3]thiazin-8a(8H)-yl]-1,3-thiazol-4-yl}-3-methyl-1,2-oxazole-5-carboxamide, trifluoroacetate salt], for which the IC50 worked out at 5040 nM.

With `Cc1cnc(C(=O)Nc2csc([C@]34CO[C@@H](C)C[C@H]3CSC(N)=N4)n2)cn1` [Example 68, N-{2-[(4aR,6S,8aR)-2-amino-6-methyl-4,4a,5,6-tetrahydropyrano[3,4-d][1,3]thiazin-8a(8H)-yl]-1,3-thiazol-4-yl}-5-methylpyrazine-2-carboxamide, trifluoroacetate salt], the IC50 came out at 2110 nM.

Consider `CC(C)c1cc(C(=O)Nc2csc([C@]34CO[C@@H](C)C[C@H]3CSC(N)=N4)n2)n(C)n1` [Example 70, N-{2-[(4aR,6S,8aR)-2-amino-6-methyl-4,4a,5,6-tetrahydropyrano[3,4-d][1,3]thiazin-8a(8H)-yl]-1,3-thiazol-4-yl}-1-methyl-3-(propan-2-yl)-1H-pyrazole-5-carboxamide, trifluoroacetate salt], for which the IC50 was 10400 nM.

As for `CCc1cc(C(=O)Nc2csc([C@]34CO[C@@H](C)C[C@H]3CSC(N)=N4)n2)on1` [Example 71, N-{2-[(4aR,6S,8aR)-2-amino-6-methyl-4,4a,5,6-tetrahydropyrano[3,4-d][1,3]thiazin-8a(8H)-yl]-1,3-thiazol-4-yl}-3-ethyl-1,2-oxazole-5-carboxamide, trifluoroacetate salt], the IC50 is 9260 nM.

On to `CCn1cc(C(=O)Nc2csc([C@]34CO[C@@H](C)C[C@H]3CSC(N)=N4)n2)cn1` [Example 72, N-{2-[(4aR,6S,8aR)-2-amino-6-methyl-4,4a,5,6-tetrahydropyrano[3,4-d][1,3]thiazin-8a(8H)-yl]-1,3-thiazol-4-yl}-1-ethyl-1H-pyrazole-4-carboxamide, trifluoroacetate salt], for which the IC50 stood at 7480 nM.

Regarding `Cc1cc(C(=O)Nc2csc([C@]34CO[C@@H](C)C[C@H]3CSC(N)=N4)n2)nn1C` [Example 73, N-{2-[(4aR,6S,8aR)-2-amino-6-methyl-4,4a,5,6-tetrahydropyrano[3,4-d][1,3]thiazin-8a(8H)-yl]-1,3-thiazol-4-yl}-1,5-dimethyl-1H-pyrazole-3-carboxamide, trifluoroacetate salt], the IC50 is 12400 nM.

These data come from patent publication US9315520B2, “2-amino-6-methyl-4,4a,5,6-tetrahydropyrano[3,4-d][1,3]thiazin-8a(8H)-yl-1,3-thiazol-4-yl amides” (Pfizer Inc., priority 2014, dated 2016).
